We go through 23 compounds from patent publication US6037335A, “Phosphonate-nucleotide ester derivatives” (Mitsubishi Chemical Corporation, priority 1993, dated 2000).

Where two headings read alike, the source gives them in different places.

For series [1], the system named is HBV. Description: Inhibition of HBV growth in mouse serum upon oral administration (HB611 cells cultured with 5% serum). Particulars: Hepatitis B virus, HB611, 0.5 h, single oral dose 0.3 g/kg, serum 30 minutes after administration, 5% serum in medium, read-out: HBV-DNA Synthesis Inhibition. Type of series: in vivo. The procedure:
(§1) Inhibition of HBV growth in rat or mouse serum upon oral administration
(§2) Groups of rats (3 rats per group) were received single oral dose of specimen (1 g/kg or 0.5 g/kg), bled at 1 hour after administration and serum was prepared. Separately, groups of mice (3 mice per group) were received single oral dose of specimen (0.3 g/kg), bled at 30 minutes after administration and serum was prepared.
(§3) HB611 cells (2×10^4) were incubated on Dulbecco ME medium containing 10% bovine fetal serum, streptomycin ([…]), penicillin (100 IU/ml) and G-418 (0.2 mg/ml) at 37° C. On the 2nd and 5th days of cultivation, the medium was changed, then substituted with a medium containing 5% of the above serum (rat or mouse serum after oral administration of the specimen) on the 8th, 11th and 14th day, and DNA of the cell was recovered on the 17th days of cultivation. The amount of HBV-DNA was measured by southern blotting, and intracellular HBV-DNA synthesis inhibition was determined. For reference, the same experiment was conducted on PMEA.

Series [2] can be described thus: Concentration required for 50% death of HB611 cells. Type of series: cell-based. Particulars: human, read-out: LD50 of HB611 cell. The procedure:
(§4) HB611 cells (recombinant human lever cancer cell producing HBV, 2×10^4) was incubated on Dulbecco ME medium containing bovine fetal serum, streptomycin ([…]), penicillin (100 IU/ml) and G-418 (0.2 mg/ml) at 37° C. On the 2nd and 5th days of cultivation, the medium was changed, then the media containing specimens at final concentration of 10 mM were substituted on the 8th, 11th and 14th days. On 17 days of cultivation, DNA of the cell was recovered. The amount of HBV-DNA was measured by southern blotting, and inhibition of HBV-DNA synthesis in the cell was determined. In addition, the concentration of the compound required for 50% death of the HB611 cells was determined.

Series [3] relates to HBV. Description: Inhibition of HBV growth in rat serum upon oral administration (HB611 cells cultured with 5% serum). Particulars: Hepatitis B virus, read-out: HBV-DNA Synthesis Inhibition; for inhibition at 500 mg/kg: single oral dose 0.5 g/kg. Type of series: in vivo. As for the experimental part: as §1, §2, §3
Series [4] concerns HBV. Kind of series: Inhibition of HBV growth (HBV-DNA synthesis in HB611 cells, southern blotting). Format: cell-based. Set-up: dose or concentration left out as unconfirmed. Particulars: Hepatitis B virus, 408 h, DNA recovered day 17. The procedure: as §4
Series [5] deals with herpes simplex viruses type-II (HSV-2). To be noted: literature; cited from earlier work.
For series [6], the system named is herpes simplex viruses type-I (HSV-1). To be noted: literature; cited from earlier work.
The subject of a further series is hepatitis B virus. To be noted: literature; cited from earlier work.
The subject of series [7] is human immunodeficiency virus (HIV). Particulars: literature; cited from earlier work.
Setting [8] is: HB611, Rat, single oral dose 1 g/kg, serum 1 hour after administration, 5% serum in medium.
Where [9] appears, read: HB611, Rat, serum 1 hour after administration, 5% serum in medium.

What is called inhibition is the drop in the measured response relative to a control, in per cent. Turning to `Nc1nc(Cl)c2c(ncn2CCOCP(=O)(OCC(F)(F)F)OCC(F)(F)F)n1` [Example 4, 7-[2-[bis(2,2,2-trifluoroethyl)phosphonylmethoxy]ethyl]-2-amino-6-chloropurine], the inhibition at 300 mg/kg with HBV [1] is 36.3%.

As for `Nc1nc(N)c2ncn(CCOCP(=O)(OCC(F)(F)F)OCC(F)(F)F)c2n1` [Example 2, 9-[2-[bis(2,2,2-trifluoroethyl)phosphonylmethoxy]ethyl]-2,6-diaminopurine], in series [2], the CC50 was determined as 840 µM. Besides, the inhibition at 1000 mg/kg in the series with HBV [3] (setting [8]) turned out to be 71.9%. Besides, in the series on HBV [4], the inhibition worked out at 99.9%.

With `Nc1nc2ncn(CCOCP(=O)(OCC(F)(F)F)OCC(F)(F)F)c2c(=O)[nH]1` [Example 21, 7-[2-[bis(2,2,2-trifluoroethyl)phosphonylmethoxy]ethyl]guanine], the inhibition in the series on HBV [4] stood at 71.3%.

Regarding `Nc1nc(Cl)c2ncn(CCOCP(=O)(OCC(F)(F)F)OCC(F)(F)F)c2n1` [Example 3, 9-[2-[bis(2,2,2-trifluoroethyl)phosphonylmethoxy]ethyl]-2-amino-6-chloropurine], the inhibition at 300 mg/kg in the series on HBV [1] came out at 99.9%. Moreover, the CC50 in series [2] came out at 399 µM. The compound also yielded an inhibition in the series on HBV [4] of 99.9%.

`Nc1nc(N)c2nnn(CCOCP(=O)(OCC(F)(F)F)OCC(F)(F)F)c2n1` [Example 5, 9-[2-[bis(2,2,2-trifluoroethyl)phosphonylmethoxy]ethyl]-8-aza-2,6-diaminopurine]: the inhibition at 300 mg/kg in the series on HBV [1] was 87.2%. The compound further yielded an inhibition in the series with HBV [4] of 97.2%.

For `Nc1ncnc2c1ncn2CCOCP(=O)(OCCOCc1ccccc1)OCCOCc1ccccc1` [Example 16, 9-[[2-bis(2-benzyloxyethyl)phosphonylmethoxy]ethyl]adenine], in series [2], the CC50 stood at 178 µM. Also, the inhibition at 500 mg/kg with HBV [3] (setting [9]) came to 43.6%. The inhibition with HBV [4] amounted to 57.8%.

Regarding `Cc1ccc(Sc2nc(O)nc3c2ncn3CCOCP(=O)(OCC(F)(F)F)OCC(F)(F)F)cc1` [Example 25, 9-[2-[bis(2,2,2-trifluoroethyl)phosphonylmethoxy]ethyl]-2-hydroxy-6-p-toluylthiopurine], the inhibition with HBV [4] was determined as 99.9%.

With `Nc1nc2c(ncn2CCOCP(=O)(OCC(F)(F)F)OCC(F)(F)F)c(=O)[nH]1` [Example 20], the inhibition at 300 mg/kg in the series with HBV [1] came to 99.9%. Further, the inhibition in the series with HBV [4] came to 99.9%.

For `Nc1ncnc2c1ncn2CCOCP(=O)(OCC(F)(F)F)OCC(F)(F)F` [Example 1, 9-[2-[bis(2,2,2-trifluoroethyl)phosphonylmethoxy]ethyl]adenine], in series [2], the CC50 was over 1000 µM. The inhibition at 1000 mg/kg in the series on HBV [3] (setting [8]) amounted to 89.9%. The inhibition in the series on HBV [4] turned out to be 91.5%.

For `COP(=O)(COCCn1cnc2c(N)nc(N)nc21)OCC(F)(F)F` (centres unmarked) [Example 13, 9-[2-[methyl(2,2,2-trifluoloethyl)phosphonylmethoxy]ethyl]-2,6-diaminopurine], the CC50 in series [2] was over 1000 µM. The inhibition at 1000 mg/kg in the series with HBV [3] (HB611, po, 1 h) amounted to 77.7%.

`COP(=O)(COCCn1cnc2c(N)ncnc21)OCC(F)(F)F` (centres unmarked) [Example 12, 9-[2-[methyl(2,2,2-trifluoloethyl)phosphonylmethoxy]ethyl]adenine]: the CC50 in series [2] is over 1000 µM. Moreover, the inhibition at 1000 mg/kg in the series on HBV [3] (HB611, po, 1 h) stood at 92.9%.

`Cc1ccc(Sc2nc(N)nc3c2ncn3CCOCP(=O)(OCC(F)(F)F)OCC(F)(F)F)cc1` [Example 24, 9-[2-[bis(2,2,2-trifluoroethyl)phosphonylmethoxy]ethyl]-2-amino-6-p-toluylthiopurine] registered an inhibition with HBV [4] of 99.9%.

With `Nc1ncnc2c1ncn2CCOCP(=O)(O)O` [PMEA, 9-(2-phosphonylmethoxy)ethyladenine], the “reported to be effective on herpes simplex virus type-II” value in series [5] was “effective”. Further, the “reported to be effective on herpes simplex virus type-I” value in series [6] was “effective”. In addition, the inhibition at 1000 mg/kg in the series with HBV [3] (HB611, po, 1 h) was found to be 35.5%. Also, in the series with hepatitis B virus, the “reported to be effective on hepatitis B virus” value is “effective”. For the same compound, the “reported to be effective on human immunodeficiency virus” value in series [7] is recorded as “effective”.

For the compound `CCCCC(=O)OCCOP(=O)(COCCn1cnc2c(N)ncnc21)OCCOC(=O)CCCC` [Example 18, 9-[[2-bis(2-valeryloxyethyl)phosphonylmethoxy]ethyl]adenine], the CC50 in series [2] amounted to 47 µM. In the series on HBV [3] (setting [9]), the inhibition at 500 mg/kg was 61.4%. This compound also had an inhibition in the series on HBV [4] of 73.4%.

As for `Cn1c(N)nc2c(ncn2CCOCP(=O)(OCC(F)(F)F)OCC(F)(F)F)c1=O` [Example 26, 9-[2-[bis(2,2,2-trifluoroethyl)phosphonylmethoxy]ethyl]-1-methylguanine], in the series with HBV [4], the inhibition came out at 99.9%.

Consider `COCCOP(=O)(COCCn1cnc2c(N)ncnc21)OCCOC` [Example 14], for which the CC50 in series [2] was over 1000 µM. In the series with HBV [3] (setting [9]), the inhibition at 500 mg/kg was 25.4%. The inhibition in the series with HBV [4] turned out to be 55%.

In the case of `Nc1nc(N)c2ncn(CCOCP(=O)(O)O)c2n1` [PMDAP, 9-(2-phosphonylmethoxy)ethyl-2,6-diaminopurine], in series [5], the “reported to be effective on herpes simplex virus type-II” value is reported as “effective”. For the same compound, the “reported to be effective on herpes simplex virus type-I” value in series [6] is on record as “effective”. For the same compound, the “reported to be effective on hepatitis B virus” value with hepatitis B virus is recorded as “effective”. Further, the “reported to be effective on human immunodeficiency virus” value in series [7] is “effective”.

In the case of `CC(=O)OCCOP(=O)(COCCn1cnc2c(N)ncnc21)OCCOC(C)=O` [Example 17, 9-[[2-bis(2-acetoxyethyl)phosphonylmethoxy]ethyl]adenine], the CC50 in series [2] is over 1000 µM. Besides, the inhibition with HBV [4] turned out to be 66.2%.

Regarding `Nc1c2ncn(CCOCP(=O)(OCC(F)(F)F)OCC(F)(F)F)c2nc[n+]1[O-]` [Example 22], the inhibition at 300 mg/kg in the series with HBV [1] turned out to be 15.2%. The inhibition in the series with HBV [4] turned out to be 76.2%.

For the compound `CC(=O)NCCOP(=O)(COCCn1cnc2c(N)ncnc21)OCCNC(C)=O` [Reference Example 1, 9-[[2-bis(2-acetamidethyl)phosphonylmethoxy]ethyl]adenine, reference compound], the CC50 in series [2] is over 1000 µM. In the series on HBV [3] (setting [9]), the inhibition at 500 mg/kg stood at 0%.

In the case of `Nc1ncnc2c1ncn2CCOCP(=O)(OCCOc1ccccc1)OCCOc1ccccc1` [Example 15, 9-[[2-bis(2-phenoxyethyl)phosphonylmethoxy]ethyl]adenine], in series [2], the CC50 was 174 µM. In addition, in the series on HBV [3] (setting [9]), the inhibition at 500 mg/kg came out at 38.5%. In addition, the inhibition in the series with HBV [4] is 59.7%.

Consider `Nc1nc2c(ncn2CCOCP(=O)(OCC(F)(F)F)OCC(F)(F)F)c(=S)[nH]1` [Example 23, 9-[2-[bis(2,2,2-trifluoroethyl)phosphonylmethoxy]ethyl]-6-thioguanine], for which, in the series with HBV [4], the inhibition came to 86.1%.

In the case of `Nc1ncnc2c1ncn2CCOCP(=O)(OCCO)OCCO` [Reference Example 2, 9-[[2-bis(2-hydroxyethyl)phosphonylmethoxy]ethyl]adenine, reference compound], the CC50 in series [2] is over 1000 µM. Also, the inhibition at 500 mg/kg in the series on HBV [3] (setting [9]) amounted to 0%. In addition, in the series with HBV [4], the inhibition came to 31%.
